Source: article PMC11952846, “The sterol-regulating human ARV1 binds cholesterol and phospholipids through its conserved ARV1 homology domain” (The Journal of Biological Chemistry, 2025)
Numbering of substitutions follows the chain as printed.

How the values were obtained:
[1] = target: T1, 6XHIS-N98 E70A (Homo sapiens, UniProt Q9H2C2, E70A); experiment: HTRF phospholipid lipid-binding assay, mutant; set-up: key to Bio-PL, EC50, M ± S.D.: NC, no change; conditions: biotinylated lipid, NC = no change vs N98
T1 construct: made in house; host or cells: E. coli BL21
T1 sequence (Q9H2C2 1-98 E70A): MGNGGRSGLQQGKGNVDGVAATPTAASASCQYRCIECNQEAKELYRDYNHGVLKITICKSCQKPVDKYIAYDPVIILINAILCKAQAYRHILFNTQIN
Excerpt: An HTRF assay was developed for 6XHIS-ARV1-N98-lipid binding. HTRF measures analyte interactions through fluorescence resonance energy transfer technology and time-resolved measurements ([53]). The interaction between two molecules can be quantified through binding each individual molecule involved with a fluorescent label and then analyzing the transfer of energy between the initial donor fluorophore and the secondary acceptor fluorophore. Following excitation of the first fluorophore, transfer of energy can only occur if the molecules bound with the fluorescent tags are within proximity to each other.
Assays were plated in 384-well flat bottom microplates (Greiner Bio, catalog #784075-25). Proteins were diluted using binding buffer (20 mM Hepes buffer, pH 7.2, containing 0.1% BSA, and 0.01% Tween20) to a stock concentration of 0.75 μM, and biotinylated phospholipids were dispensed, dried under nitrogen gas, and resuspended in binding buffer to a stock concentration of 50 μM. The lipid stock solution was diluted by 1:2 for a series of 12 serial dilutions. For the assay, in sequential order, 6 μl of binding buffer was loaded into the plate in triplicate for each dilution of phospholipid. To this, 2 μl of 0.75 μM 6XHIS-ARV1-N98 was added, followed by 2 μl of biotinylated phospholipid. Immediately following each addition loaded into the plate, the plate was centrifuged for 1 min at 1000 rpm to bring the contents to the bottom of the well. Next, detection antibodies were mixed with detection buffer (20 mM Hepes buffer, pH 8.5, containing 0.01% BSA and 200 mM KF). Antibodies were a MAb anti-6XHIS Europium kryptate-conjugated D1 fluorescent antibody (Cisbio, #61HISKLA) and Streptavidin-conjugated d2 fluorescent antibody (Cisbio, #610SADLA). For each 1000 μl of detection buffer, 5 μl of each antibody was added just prior to loading 10 μl into each well. The plate was again centrifuged for 1 min at 1000 rpm and stored in a sealed container overnight, in the dark. Plates were read on a PerkinElmer EnVision Xcite Multilabel plate reader.
Curves were logarithmically transformed and normalized to a common scale before being fit with a nonlinear regression of the agonist against the normalized response. This generated half maximal effective concentration values (EC50; M) that could then be compared between different lipids. In the context of our study, EC50 values were defined as a measure of protein sensitivity to binding to a particular lipid within a dose response curve. For phospholipid competition analysis, IC50; M values were determined using nonlinear regression of the inhibitor against normalized response.

[2] = target: T2, GST-ARV1 (full-length ARV1) (Homo sapiens, UniProt Q9H2C2); experiment: Protein-lipid liposome binding assay (ultracentrifugation, Western blot); conditions: protein detected in final pellet
T2 construct: Expresses full length ARV1; made in house; host or cells: E. coli BL21 (pGEX-4T1)
T2 sequence (Q9H2C2 1-271): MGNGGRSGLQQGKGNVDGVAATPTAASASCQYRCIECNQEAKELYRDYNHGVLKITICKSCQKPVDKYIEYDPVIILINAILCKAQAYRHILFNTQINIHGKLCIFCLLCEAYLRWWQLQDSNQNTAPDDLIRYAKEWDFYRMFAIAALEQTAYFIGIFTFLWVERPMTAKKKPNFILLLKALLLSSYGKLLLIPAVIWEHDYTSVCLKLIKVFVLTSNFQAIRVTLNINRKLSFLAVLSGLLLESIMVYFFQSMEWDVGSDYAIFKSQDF
Experimental: (§1) Lyophilized lipids were reconstituted in chloroform at 10 mg/ml and stored in glass tubes with Teflon tops at −20 °C until use. One milliliter of 10 mg/ml stock was dried under a stream of nitrogen in a glass tube until a lipid cake/film was formed. The lipid cake was then rehydrated in BLT rehydration buffer (5 mM Tris/HCl, pH 7.4, containing 150 mM NaCl) to a concentration of 1 mg/ml. Lipid suspensions were subjected to three freeze/thaw cycles using a dry ice ethanol/[…] water bath to encapsulate the buffer and improve liposome formation. The suspension and lipid extruder were equilibrated to temperature for 10 min and liposomes were extruded using […] polycarbonate membranes (Avestin). Liposomes were made by mixing stock lipid PL (1 mg/ml) with PC (10 mg/ml).
Cholesterol composition liposomes were rehydrated with cholesterol rehydration buffer (10 mM Hepes, pH 7.4, containing 150 mM KCl).
(§2) Liposomes were serial diluted in floatation buffer (100 mM NaCl, 2 mM EDTA, pH 5.5) to a final concentration of 0.1 mg/ml. Nine hundred microliters of liposome solution was placed in clear ultracentrifuge tubes and mixed with 100 μl of 0.01 μg/ml of protein. The liposome/protein solution was incubated at room temperature for 1 h with occasional shaking. An initial 100 μl of liposome/protein solution (liposomes) was removed and the remaining 900 μl was centrifuged at 50,000g for 20 min at 4 °C. The pellet was resuspended in 800 μl of fresh floatation buffer, centrifuged as above, and 800 μl of supernatant was removed (wash 1). This was repeated a second time and again 800 μl of supernatant was removed (wash 2). The final pellet was resuspended in 100 μl of floatation buffer plus SDS treatment buffer (pellet). Thirty microliters of each fraction was run on a 15% SDS-PAGE gel and probed with an anti-GST monoclonal antibody at a 1:1500 dilution.

[3] = target: T3, GST-ARV1-N98 C34/C37A (Homo sapiens, UniProt Q9H2C2, C34A/C37A); experiment: Liposome binding assay, site-directed mutant; conditions: PC:PL, sulfatide or PI(4)P liposomes
T3 construct: Expresses amino-terminal 98 amino acids of ARV1; made in house; host or cells: E. coli BL21 (pGEX-4T1)
T3 sequence (Q9H2C2 1-98 C34A/C37A): T1 sequence (Q9H2C2 1-98 E70A) with C34A, C37A, A70E
Experimental: as §1
Sulfatide liposomes were generated as previously described ([94]). All lipids were resuspended in organic solvents as per manufacturer’s instructions. Liposomes were prepared with mixing PC:PE:cholesterol:sulfatides (1:1:1:4) and subsequently dried down by lyophilization to obtain lipid films. Lipids were hydrated in 20 mM Tris–HCL, pH 6.8, containing 100 mM NaCl at a concentration of 1 mg/ml.
PI(4)P liposomes were generated as described by Knodler et al. ([95]), with some modifications. Briefly, liposomes were generated at a lipid concentration of 10 mg/ml. Liposomes contained PC (60%), PI (30%), PE (8%), and PI(4)P (2%). Lipid solution was dried down and resuspended in liposome buffer (20 mM Hepes–HCL, pH 7.4, containing 1 mM EDTA and 50 mM potassium acetate). Liposomes were formed by sonication on ice.
as §2

Compound	Bio-PL, EC50, M ± S.D. [1]	binding to PC:PL liposomes [2]	liposome binding [3]	EC50 ([1]; read-out: Bio-PL, EC50, M ± S.D.) [nM]
CCCCC/C=C\C/C=C\CCCCCCCC(=O)OC[C@H](COP(=O)(O)OCC(O)COP(=O)(O)OC[C@@H](COC(=O)CCCCCCC/C=C\C/C=C\CCCCC)OC(=O)CCCCCCC/C=C\C/C=C\CCCCC)OC(=O)CCCCCCC/C=C\C/C=C\CCCCC (stereo partly shown) [CL, cardiolipin]	NC	bound	–	–
CCCCCCCCCCCCCCCC(=O)OC[C@H](COP(=O)(O)O)OC(=O)CCCCCCCCCCCCCCC [PA, phosphatidic acid]	reduced binding	bound	bound	–
CCCCCCCC/C=C\CCCCCCCC(=O)OC[C@H](COP(=O)(O)OCC(O)CO)OC(=O)CCCCCCC/C=C\CCCCCCCC (stereo partly shown) [PG, phosphatidylglycerol]	NC	bound	not	–
CCCCCCCCCCCCCCCCCC(=O)OC[C@H](COP(=O)(O)OC[C@H](N)C(=O)O)OC(=O)CCCCCCCCCCCCCCCCC [PS, phosphatidylserine]	NC	bound	–	–
CCCCCC(=O)O[C@H](COC(=O)CCCCCNC(=O)CCCC[C@@H]1SC[C@@H]2NC(=O)N[C@@H]21)COP(=O)(O)O[C@H]1[C@H](O)[C@@H](O)[C@H](OP(=O)(O)O)[C@@H](O)[C@H]1O [reference compound]	weakened	–	bound	–
phosphatidylcholine [PC]	NC	very weakly	–	–
phosphatidylethanolamine [PE]	–	Neither	–	190
